What was measured:
[1] = test system: houseflies (musca domestica); experiment: Test-room trap choice experiment, attractants compared with the standard (% of total flies caught); format: in vivo; conditions: for % Catch: Table 3, TMA/Z-9 and the combination; for attractiveness to flies (in words): attractant judged by itself or against a named alternative; for effect on the attractancy of the standard TMA/Z-9 when combined (in words): in combination with trimethylamine and Z-9-tricosene
Protocol: The trimethylamine (TMA) solution was prepared freshly for each experiment by dissolving a known amount of trimethylamine in a solution of sodium bicarbonate in water, to make 6 milliliters total volume. […] Additional attractants were placed in a third jar lid, or otherwise dispersed separately in the lower compartment of the test traps, for comparison against the standard. A testing room approximately 10 feet by 15 feet was furnished with folding tables on which to place the traps. In such a room was placed a total of six traps, two each of the control, the new attractant, and a combination of control+new attractant. Flies were raised from fly pupae, purchased from Beneficial […], California in a separate room under controlled conditions. For each experiment, after setting up the test traps, around 200 flies were introduced into the room for an 18-24 hour period, and observations were made periodically. At the end of each experiment, flies were counted in each trap, and the remaining flies not trapped were counted in order to account for all flies. In most cases, the remaining flies not caught had expired and were found on the floor of the testing suite. The data are reported for each trap as the percentage of the total flies caught, ignoring the flies not caught. It was observed that a percentage of the initially released flies were always weaker than the main population, and would quickly move toward the floor. Thus, only healthy, active flies were caught, since they were still foraging and seeking mating partners. The experiments were repeated daily, randomly rotating the relative positions of traps in the room with respect to their contents, such that positional effects in the room would be averaged out over many repetitions of the experiment. The results of each experiment, one per day, over one to two weeks, were totaled, and the total catch per attractant type were reported as percentage of catch (% catch).

flies = experiment: Comparison of muscalure against other fly attractants; format: in vivo; conditions: compared against other fly attractants; no method given

`CC(=O)O` [Acetic Acid, Acetic acid] was tested, and the “% Catch” value ([1]; choice between acetic acid) was 7%, the “attractiveness to flies (in words)” value [1] was “weak attractant” and the “effect on the attractancy of the standard TMA/Z-9 when combined (in words)” value (from here on “effect on the attractancy”) [1] was “no effect on the attractancy of TMA/Z-9”.
For `C=CC(O)CCCCC` (stereo not drawn) [Attractant 1-octen-3-ol, 1-octen-3-ol], the “% Catch” value ([1]; choice between 1-octen-3-ol) was 0%, the “attractiveness to flies (in words)” value [1] was “non-attractive or repellent to flies” and the “effect on the attractancy” value [1] was “lowered the overall relative catch”.
In the case of `CCO` [Ethanol], the “% Catch” value ([1]; choice between ethanol) is reported as 7%, the “attractiveness to flies (in words)” value [1] is reported as “weak attractant” and the “effect on the attractancy” value [1] is reported as “no statistically significant effect on the attractancy of the standard”.
For `CCCC(=O)O` [butyric acid], the “effect on the attractancy” value [1] was “increases the attractiveness of the attractant combination”.
In the case of `CCCCCCCC/C=C\CCCCCCCCCCCCC` [muscalure, Z-9-tricosene], the “attractiveness to flies (in words)” value (flies) is reported as “weak fly attractant”.
For “Z-9-epoxytricosene [Attractant Z-9-Epoxy]”, the “attractiveness to flies (in words)” value [1] was “no more attractive than Z-9-tricosene”.

— patent US20050142160A1, “ACTIVE ATTRACTANT COMPOSITION FOR INSECTS” (priority 2003, published 2005)
